Values of other authors, collected in US20190381039A1, “USE OF sGC STIMULATORS FOR THE TREATMENT OF ESOPHAGEAL MOTILITY DISORDERS” (Cyclerion Therapeutics, Inc., priority 2016, published 2019).

What was measured:
[1] = test system: patients with esophageal motility abnormalities
[2] = test system: patients with idiopathic achalasia
[3] = report from 2000, patients with esophageal dysmotility

Structure (SMILES) | relief of chest pain [1] | utility in achalasia patients (off label) ([2]; Bortolotti et al., Gastroenterology 118(2): 253-7, 2000) | side effects reported by patients ([2]; report from 2000) | LES pressure [2, 3] | clinical symptoms [2, 3]
CN(C)CCCN1c2ccccc2CCc2ccccc21 [imipramine] | effective in relieving chest pain |  |  |  | 
CCCc1nn(C)c2c(=O)[nH]c(-c3cc(S(=O)(=O)N4CCN(C)CC4)ccc3OCC)nc12 [sildenafil] |  | some limited utility | dizziness and headaches | able to reduce LES pressure | clinical symptoms were not improved
O=c1n(CCCN2CCN(c3cccc(Cl)c3)CC2)nc2ccccn12 [trazodone] | effective in relieving chest pain |  |  |  | 
